Values of other authors as cited in patent US8673356B2, “Stable fixed dose topical formulation” (Glenmark Pharmaceuticals Limited, priority 2008, dated 2014).

Assays:
[1] = converted in vivo by hydrolysis to active clindamycin

SMILES	Solubility in ethanol (ethanol)	Solubility in tetrahydrofuran (tetrahydrofuran)	Solubility in water	Activity in vitro [1]
COc1ccc(-c2ccc3cc(C(=O)O)ccc3c2)cc1C12CC3CC(CC(C3)C1)C2 [Adapalene, 6-[3-(1-adamantyl)-4-methoxyphenyl]-2-naphthoic acid]	very slightly soluble	soluble	practically insoluble	–
CCC[C@@H]1C[C@@H](C(=O)NC(C2O[C@H](SC)[C@H](OP(=O)(O)O)[C@@H](O)[C@H]2O)[C@H](C)Cl)N(C)C1 (stereo partly drawn) [Clindamycin phosphate, methyl 7-chloro-6,7,8-trideoxy-6-(1-methyl-trans-4-propyl-L-2-pyrrolidinecarboxamido)-1-thio-L-threo-D-galactooctopyranoside 2-(dihydrogen phosphate)]	–	–	water soluble	inactive
